The text below walks through data of patent publication US20190330167A1, “ACTIVATORS OF HIV LATENCY” (priority 2016, published 2019).

The subject of this experiment is latent HIV in resting memory CD4+ T cells isolated by leukapheresis from HIV+ donors on antiretroviral therapy. Type of experiment: cell-based, HIV-1. The following applies: 72 hrs. The source says:
FIG. 41a. […] Resting memory CD4+ T cells isolated by leukapheresis from HIV+ donors on antiretroviral therapy were reactivated for 72 hrs using known LRAs including vorinostat (Vor) also known as suberanilohydroxamic acid, another hydroxamic acid panobinostat (Pan), and the depsipeptide Romidepsin (Rom) that are all HDACi, together with JQ1 (+) which is a thienotriazolodiazepine known to inhibit the BET family of bromodomain proteins including BRD2, BRD3, and BRD4, and compared with compounds according to the present invention DP#6 (Compound 41), DP#14 (Compound 7), and DP#16 (Compound 64).
FIG. 41c. […] Resting memory CD4+ T cells isolated by leukapheresis from HIV+ donors on antiretroviral therapy were reactivated for 72 hrs using known (vorinostat, Vor; panobinostat, Pan; romidepsin, Rom; and JQ1 (+)) and compounds according to the present invention (DP#6 (Compound 41), DP#14 (Compound 7), and DP#16 (Compound 64)).
FIG. 42c. […] Resting memory CD4+ T cells isolated by leukapheresis from HIV+ donors on antiretroviral therapy were reactivated for 72 hrs using known (JQ1 (+)) and compounds according to the present invention (DP#14 (Compound 7)) alone and in combination, and HIV-1 RNA detected through qPCR.
Total peripheral blood mononuclear cells (PBMC) were stored frozen in liquid nitrogen and prior to use, vials of frozen cells (0.5×10^8 PBMCs/vial or 1×10^8 PBMCs/vial) were quick thawed in a 42° C. water bath. Cells were promptly transferred to a 15 mL tube with 5 mL FBS dropwise then, then 6 mL of RF10 was added. Cells were pelleted at 300 g for 10 min at room temperature. Following aspiration, the cells were resuspended in RF10, pooled into a 50 mL tube which was topped up with RF10. PBMC were pelleted again at 300 g for 10 min at room temperature. Following aspiration, the cells were resuspended in PBS(−/−) and counted. CD4+ T cells were then isolated from 4×10^8 PBMCs that were pelleted and resuspended in PBS(−/−) at 1×10^7 cells/40 μL. 10 μL of CD4+ T cell Biotin-Antibody cocktail (Miltenyi Biotec) for every 1×10^7 cells was added and the mix refrigerated for 5 min. 30 μL of PBS(−/−) for every 1×10^7 cells was added, and 20 μL of the CD4+ T cell MicroBeads for every 1×10^7 cells was added and the mix refrigerated for 10 min. Unlabelled CD4+ T cells were then isolated by negative selection using magnetic separation. CD4+ T cells were then counted before being diluted to 4×10^6 cells/500 μL in RF10 for each condition and seeded into a 48 well plate.
Latent HIV was reactivated in the presence of the HIV integrase inhibitor Raltagravir (Ral) to prevent any further rounds of infection. Ral was made to [2 μM] in RF10+IL-2 (2 U/mL), and used to make 1 mL preparation of each drug up at [×2]. 500 μL of the [×2 Ral/IL-2/drug] was then added to the appropriate wells containing cells. Cells were transported to PC3 and incubated for 72 hrs.
Following reactivation, 800 μL of cell supernatant was transferred to labeled 1.5 mL screwcap tubes, pelletted at 800 g for 10 min then transferred to a second set of tubes and frozen for possible use at a later date. 800 μL of PBS(−/−) was added to each well to mix the cells and 50 μL of cells transferred to another set of tubes for live/dead staining and flow cytometry. Cells were pelleted at 400 g for 10 min, the media aspirated and cells resuspended in 100 μL of a [×1] APC-cy7 live/dead stain (Life technologies).

Read-outs that look alike come from different tables or passages of the source.

In the case of `O=C(CCCOc1ccccc1)Nc1ncc(Br)s1` [Compound 7], the “induction of HIV-1 gene expression, % of the normalized value” is, setting by setting: (at 5 μM, normalized between unstimulated baseline and PMA as 100%) 24%; (normalized between unstimulated baseline and PMA positive control as 100%, concentration not given) 24%.
